Patent EP2319525A1, “Composition for treating insulin resistance” (Universitätsklinikum Hamburg-Eppendorf, priority 2009, dated 2011)
Side chains are listed from the residue outwards. Peptide text beside a SMILES is read from it. * marks the point of attachment. Nicotinoyl = O=C(c1cccnc1)*; Cbz = O=C(OCc1ccccc1)*

What was measured:
Format in all cases: cell-based, rodent
[1] = system: L6 myotubes; experiment: Long-term (24 hours) stimulation: basal and insulin-mediated uptake of H-3-labeled 2-Deoxy-D-glucose in L6 myotubes
Method: (§1) The data presented below were generated in the rodent myoblast cell line L6 (ATCC #CRL-1458). […] L6 myotubes express both the AT-1 and the AT-2 receptor at relevant levels making these cells an ideal model to test the interference of both receptors with basal and insulin-mediated glucose uptake. L6 myoblasts were maintained as proliferating myoblasts in DMEM high glucose medium supplemented with 10% FCS, 4 mM L-glutamine, 1 mM pyruvate at 37°C in the presence of 5% CO2. The seeding density used for the experiments was 2 x 10^4 cells/cm^2 on 1% gelatincoated dishes. To induce differentiation of myoblasts into myotubes, 90-100% confluent cultures (cultured on standard 6-well plates) were switched to DMEM supplemented with 2% adult horse serum. Myoblast growth and myotube formation were examined using phase-contrast microscopy. The medium was changed every 2 days, and differentiation was allowed to continue for 10 days before the experimentation period.
(§2) L6 myotubes (n=9-12) cultured as described in example 1 were incubated either with angiotensin II (10^-7 mol/l), with a combination of angiotensin II (10^-7 mol/l) and AT-1 receptor blocker losartan (10^-7 mol/L), or with a combination of angiotensin II (10^-7 mol/l), losartan (10^-7 mol/L) and AT-2 receptor blocker PD 123319 (10^-7 mol/L). The uptake of H-3-labeled 2-Deoxy-D-glucose (GE Healthcare Biosciences), which cannot undergo further glycolysis, was measured as follows: • H-3-labeled 2-Deoxy-D-glucose uptake in the differentiated myotubes was analysed as described previously (Ceddia et al., Diabetologia (2005); 48 (1) :132-9) with minor modifications. Differentiated myotubes were serum-starved overnight in DMEM containing 1% glucose before being incubated with angiotensin II, the AT-1 receptor blocker losartan, and/or the AT-2 receptor blocker PD123319. […] Cell lysates were transferred to scintillation vials for radioactivity counting. Non-specific uptake was determined in the presence of cytochalasin B (10 µmol/L) and was subtracted from all values. […]

[2] = system: L6 myotubes; experiment: Uptake of H-3-labeled 2-Deoxy-D-glucose in differentiated L6 myotubes, short-term incubation (20 min + 10 min)
Method: as §1, §2

[3] = system: L6 myotubes; experiment: as above; details: CGP-42112A 10^-8 mol/L, alone and in combination with losartan 10^-7 mol/L
Method: The data presented below were generated in the rodent myoblast cell line L6 (ATCC #CRL-1458). […] L6 myotubes express both the AT-1 and the AT-2 receptor at relevant levels making these cells an ideal model to test the interference of both receptors with basal and insulin-mediated glucose uptake. L6 myoblasts were maintained as proliferating myoblasts in DMEM high glucose medium supplemented with 10% FCS, 4 mM L-glutamine, 1 mM pyruvate at 37°C in the presence of 5% CO2. The seeding density used for the experiments was 2 x 10^4 cells/cm^2 on 1% gelatincoated dishes. To induce differentiation of myoblasts into myotubes, 90-100% confluent cultures (cultured on standard 6-well plates) were switched to DMEM supplemented with 2% adult horse serum. […] The uptake of H-3-labeled 2-Deoxy-D-glucose (GE Healthcare Biosciences), which cannot undergo further glycolysis, was measured as follows: • H-3-labeled 2-Deoxy-D-glucose uptake in the differentiated myotubes was analysed as described previously ([…] et al., Diabetologia (2005); 48 (1) :132-9) with minor modifications. […] Cell lysates were transferred to scintillation vials for radioactivity counting. Non-specific uptake was determined in the presence of cytochalasin B (10 μmol/L) and was subtracted from all values. […] The uptake of H-3-labeled 2-Deoxy-D-glucose was measured as described in Example 1 above.

[4] = PD 123319 10^-7 mol/L added to angiotensin II 10^-7 mol/L + losartan 10^-7 mol/L

## CCCCc1nc(Cl)c(CO)n1Cc1ccc(-c2ccccc2-c2nn[nH]n2)cc1 [losartan]
[1]; losartan 10^-7 mol/L alone
  basal glucose uptake of L6 myotubes: induced
[1]; losartan 10^-7 mol/L alone, insulin 1 µg/ml
  insulin-mediated glucose uptake of L6 myotubes: induced

## Cc1cc(Cn2cnc3c2CC(C(=O)O)N(C(=O)C(c2ccccc2)c2ccccc2)C3)ccc1N(C)C (stereo not shown) [PD123319]
[1]; [4]
  effect on the glucose uptake enhanced by angiotensin II in the presence of losartan: completely absent
[2]; PD 123319 10^-7 mol/L added to CGP-42112A 10^-8 mol/L + losartan 10^-7 mol/L
  effect on the CGP-42112A-induced glucose uptake: completely blocked
[2]; [4]
  effect on the glucose uptake enhanced by angiotensin II in the presence of losartan: inhibited
[2]; substance alone, 10^-7 mol/L, L6 myotubes, n=9-12
  uptake of H-3-labeled 2-Deoxy-D-glucose: did not affect

## CC[C@H](C)[C@H](NC(=O)[C@@H]1CCCN1C(=O)[C@H](Cc1c[nH]cn1)NC(=O)[C@H](CCCCNC(=O)[C@H](CCCNC(=N)N)NC(=O)OCc1ccccc1)NC(=O)[C@H](Cc1ccc(O)cc1)NC(=O)c1cccnc1)C(=O)O [CGP-42112A] (Nicotinoyl-YK([Arg-Cbz])HPI-OH)
[3]
  glucose uptake compared with the effect of angiotensin II: mimicked
